System: bacteria
Assay: Bacteria resistance testing: bacteria counts (spread plate, R2A agar) in infected electrodeposition ultrafiltrate permeate
Type: cell-based
Conditions: for Bacteria Count 3 day: plated at 3 days; for Bacteria Count 7 day: plated at 7 days; for Bacteria Count 10 day: plated at 10 days
Description: Infected ultrafiltrate from an online electrodeposition bath tank (containing E6100H, commercially available from PPG Industries, Inc.) having a bacterial count of 4.5×10^6 cfu/mL was used to inoculate filter-sterilized ultrafiltrate (“permeate”) collected from the same line. The infected ultrafiltrate was diluted by a factor of 10^4 into the sterile permeate. The infected permeate was added to reactors. The various acids listed below in the following Table 2 were prepared as 1 % solutions in water and tested at 2000, 1000, 500, 200, 100, and 50 ppm of active material. Reactors were rolled for 10 days at 32° C. and were plated for bacteria counts at 3, 7, and 10 days.
The enumeration of […] heterotrophs in the reactors utilized the standard spread plate method as described in Standard Methods for the Examination of Water and Wastewater, 1992, section 9215C. Bacterial counts were examined using R2A agar plates. 100 μL of a suitable dilution of sample was pipetted onto the surface of the media and spread with an alcohol and flame sterilized glass rod. The plates were inverted and incubated for 3 days at 32° C. with periodic examination. Colony forming units were counted on a New Brunswick Bactronic Colony Counter. A target of 30 to 300 cfu per plate was considered a valid count.

[1] = acid at 50 ppm of active material (boric acid: 8.9 ppm B), 32° C.
[2] = acid at 100 ppm of active material (boric acid: 17.8 ppm B), 32° C.
[3] = acid at 200 ppm of active material (boric acid: 35.5 ppm B), 32° C.
[4] = acid at 500 ppm of active material (boric acid: 89 ppm B), 32° C.
[5] = acid at 1000 ppm of active material (boric acid: 177.5 ppm B), 32° C.
[6] = acid at 2000 ppm of active material (boric acid: 355 ppm B), reactors rolled at 32° C.

In the case of OB(O)O [Boric Acid], the “Bacteria Count 3 day” value [1] is reported as 8.8 × 10^2, the “Bacteria Count 7 day” value [1] is reported as 4.6 × 10^6 and the “Bacteria Count 10 day” value [1] is reported as 4.0 × 10^3. The “Bacteria Count 3 day” value [2] was 3.0 × 10^2, the “Bacteria Count 7 day” value [2] was 5.6 × 10^5 and the “Bacteria Count 10 day” value [2] was 1.4 × 10^7. For the same compound, the “Bacteria Count 3 day” value [3] was 3.6 × 10^2, the “Bacteria Count 7 day” value [3] was 2.8 × 10^3 and the “Bacteria Count 10 day” value [3] was 2.0 × 10^6. The “Bacteria Count 3 day” value [4] was <4.0 × 10^1, the “Bacteria Count 7 day” value [4] was <4.0 × 10^1 and the “Bacteria Count 10 day” value [4] was <4.0 × 10^1. For the same compound, the “Bacteria Count 3 day” value [5] was <4.0 × 10^1, the “Bacteria Count 7 day” value [5] was <4.0 × 10^1 and the “Bacteria Count 10 day” value [5] was <4.0 × 10^1. For the same compound, the “Bacteria Count 3 day” value [6] was <4.0 × 10^1, the “Bacteria Count 7 day” value [6] was <4.0 × 10^1 and the “Bacteria Count 10 day” value [6] was <4.0 × 10^1. The “levels at which the growth of bacteria is retarded” value (as compared to lactic acid in an analogous composition, summary of Table 2) was at least 500 ppm.

For CC(O)C(=O)O (stereo not shown) [Lactic Acid, reference compound], the “Bacteria Count 3 day” value [1] was 9.2 × 10^5, the “Bacteria Count 7 day” value [1] was 4.4 × 10^7 and the “Bacteria Count 10 day” value [1] was 3.8 × 10^7. For the same compound, the “Bacteria Count 3 day” value [2] was 8.8 × 10^5, the “Bacteria Count 7 day” value [2] was 4.4 × 10^7 and the “Bacteria Count 10 day” value [2] was 2.4 × 10^6. The “Bacteria Count 3 day” value [3] was 1.5 × 10^6, the “Bacteria Count 7 day” value [3] was 1.6 × 10^7 and the “Bacteria Count 10 day” value [3] was 1.2 × 10^7. The “Bacteria Count 3 day” value [4] was 1.6 × 10^7, the “Bacteria Count 7 day” value [4] was 4.0 × 10^7 and the “Bacteria Count 10 day” value [4] was 2.8 × 10^6. The “Bacteria Count 3 day” value [5] was 9.6 × 10^6, the “Bacteria Count 7 day” value [5] was 3.2 × 10^7 and the “Bacteria Count 10 day” value [5] was <4.0 × 10^5. For the same compound, the “Bacteria Count 3 day” value [6] was 2.1 × 10^6, the “Bacteria Count 7 day” value [6] was 4.8 × 10^7 and the “Bacteria Count 10 day” value [6] was 1.1 × 10^7.
